Usually Cmax stands for the maximum level reached in the sampled fluid or tissue.

These results are taken from US20100015220A1, “NIACIN AND NSAID COMBINATION THERAPY” (priority 2008, published 2010).

Like-named read-outs stand apart in the source and are kept apart here.

Data set [1] is described as follows: Example 2 safety: monitoring of adverse events. In kind it is in vivo, healthy volunteers. On the procedure: Safety was assessed be assessing flushing episodes and by monitoring of other adverse events.
An adverse event (AE) is any unfavorable and unintended sign including an abnormal laboratory finding, symptom, or disease temporally associated with the use of a medical product, whether or not considered related to the study drug. The severity rating was scaled based on the following categories: • mild—awareness of a symptom, but easily tolerated; • moderate—discomfort enough to cause interference with usual activity; • severe—incapacitating with inability to work or perform usual activity.
A total of 54 subjects were enrolled in the study. Forty-six subjects completed all three dosing periods and have contributed data to the evaluation of flushing parameters. A total of 51 subjects were exposed to Treatment A (240 mg ASA), 50 to B (60 mg ASA), and 50 to C (Placebo); these subjects comprise the population for evaluation of safety parameters.

Data set [2] relates to flushing induced by nicotinic acid. As to conditions: humans; total 975 mg aspirin (650 mg at 1 hr and 325 mg at 0.5 hr prior to high dose nicotinic acid); cited from earlier work.
For data set [3], the system named is flushing following niacin dosing. Put plainly: Example 1 clinical study: anti-flushing effect of aspirin regimen on immediate release niacin. In kind it is in vivo, healthy volunteers. As to conditions: 243 mg aspirin per day for four days plus 20 mg/hr from 6 h before to 5 h after immediate release niacin; vs placebo. An excerpt: Provided is the clinical study to establish an anti-flushing effect of aspirin regimen on immediate release niacin. The primary endpoints for this study were treatment group comparisons of: • incidence, duration and severity of flushing following niacin dosing; • routine monitoring adverse events. Subjects have screening procedures performed up to 4 weeks prior to the first dosing visit. All qualified subjects received two single doses of niacin one week apart. Subjects were randomized to receive either an aspirin regimen or a placebo regimen prior to their niacin dose on day 1 and the opposite regimen prior to their niacin dose on day 8. At randomization, subjects received blinded study medication to be taken in the morning and evening of days −4, −3, −2 and −1. Subjects checked into the clinic on day −1 and remained housed for approximately 24 hours after niacin dosing on day 1. Prior to leaving the clinic, they received blinded study medication to be taken on the morning and evening of days 4, 5, 6, and 7. Subjects returned to the clinic on day 7 and remained housed for approximately 24 hours after niacin dosing on day 8. […] Episodes of flushing (including burning, itching, crawling sensation, pain and/or reddening of the skin, fever-like sensation) were recorded with start and end time and maximum severity captured. […]

The subject of data set [4] is flushing associated with single-dose administration of extended-release niacin (Niaspan). In words: Example 2 three-way cross-over study: anti-flushing effects of two aspirin regimens versus placebo on extended release niacin. The class given is in vivo, healthy volunteers. As to conditions: for subjects who experienced a flushing response: 2 g extended-release niacin; for subjects who experienced a flushing response / total number of flushing episodes: 46 subjects; for maximum severity of flushing, mean / maximum severity of flushing, median: 100 mm VAS; for total cumulative duration of flushing, mean / total cumulative duration of flushing, median: start of first episode to end of last. An excerpt:
To assess the ability of two aspirin regimens to decrease flushing associated with single-dose administration of extended-release niacin (Niaspan®). […] Study subjects remained housed overnight at the clinical research center following niacin dosing to carefully monitor for flushing reactions and other adverse events. Each subject received all three dosing regimens in a randomized, three-way cross-over fashion. Subjects have screening procedures performed up to 4 weeks prior to Period 1 Day (the first dosing visit), including assessment of flushing response to a 500 mg immediate release niacin (Niacor®) challenge. All qualified subjects received three single doses of extended-release niacin at least one week apart during three treatment periods. Subjects were randomized to receive one of the two aspirin regimens or placebo prior to their niacin dose on Day 1 of each treatment period. At randomization, subjects received blinded study medication to be taken in the evening of days -3 and -2. For each treatment period, subjects checked into the clinic on Day -1 and remained housed for at least 18 hours after niacin dosing on Day 1. Prior to leaving the clinic during treatment periods 1 and 2, subjects received blinded study medication to be taken in the morning and evening of Days -3 and -2 of the next treatment period. End of study procedures was performed on Day 2 of treatment period 3 240 mg […]. for three days prior to niacin dosing plus 30 mg ASA per hour for eight hours, starting 4 hours prior to niacin dosing. 10 mg ASA per hour for 6 hours prior to niacin dosing. This regimen tested whether a lower dose of aspirin without an aspirin lead-in, and given entirely prior to niacin dosing, was sufficient to diminish flushing. No aspirin. This regimen acted as the negative control. Niaspan®, as well as blinded aspirin or placebo, for oral administration during the inpatient portion of each treatment period (Day -1 and Day 1) were dispensed by study pharmacist and administered to the subject by study personnel. Aspirin or placebo were administered in the evening on Day -1 and hourly on Day 1 for 6 hours before, concurrently with, and hourly for 3 hours after the Niaspan® dose. Episodes of flushing (including burning, itching, crawling sensation, pain and/or reddening of the skin, fever-like sensation) were recorded with start and end time maximum severity, and individual symptoms captured. A 100 mm visual analog scale (0=no flushing symptoms; 100=intolerable symptoms) was used to capture severity as reported by the subject. For each subject during each treatment period, the number of episodes of flushing, maximum severity of all episodes of flushing, and total duration of flushing, from start of the first episode to the end of the last episode, was calculated and summarized by treatment regimen. […] A total of 54 subjects were enrolled in the study. Forty-six subjects completed all three dosing periods and have contributed data to the evaluation of flushing parameters. A total of 51 subjects were exposed to Treatment A (240 mg ASA), 50 to B (60 mg ASA), and 50 to C (Placebo); these subjects comprise the population for evaluation of safety parameters.

A short description of data set [5]: ASA and salicylic acid plasma pharmacokinetic profiles. As to conditions: for aspirin plasma AUC / salicylic acid plasma AUC: in vivo; for Cmax: plasma, oral. The class given is in vivo.
The subject of data set [6] is flushing induced by nicotinic acid. As to conditions: guinea pigs; aspirin 50, 100 or 200 mg/kg; cited from earlier work.
The conditions of data set [7]: in vivo; cited from earlier work.

`CC(=O)Oc1ccccc1C(=O)O` [ASA, acetyl salicylic acid]: in data set [1] (60 mg ASA), the “adverse events involving gastrointestinal disorders” value is on record as 3 subjects and the headache amounted to 5 subjects. In data set [1] (60 mg ASA (n = 50)), the “Number of AEs” value was 14, the “Subjects with AEs Leading to Withdrawal” value is recorded as 0 (0.0%) subjects (%), the “Subjects with Serious AEs” value is on record as 0 (0.0%) subjects (%) and the “Subjects with Severe AEs” value is 0 (0.0%) subjects (%). In data set [1] (60 mg ASA (n = 50)), the “Subjects with any AE” value is 10 (20.0%) subjects (%) and the “Subjects with any CTM-related AE” value was 7 (14.0%) subjects (%). Also, in data set [1] (240 mg ASA), the “adverse events involving gastrointestinal disorders” value is 4 subjects and the headache is 4 subjects. In data set [1] (240 mg ASA (n = 51)), the “Number of AEs” value was 14, the “Subjects with AEs Leading to Withdrawal” value is reported as 0 (0.0%) subjects (%), the “Subjects with Serious AEs” value is listed as 0 (0.0%) subjects (%) and the “Subjects with Severe AEs” value is 0 (0.0%) subjects (%). In addition, in data set [1] (240 mg ASA (n = 51)), the “Subjects with any AE” value is 12 (23.5%) subjects (%) and the “Subjects with any CTM-related AE” value is 7 (13.7%) subjects (%). For the same molecule, the “flushing induced by nicotinic acid” value in data set [2] is listed as “reduce the flushing induced by nicotinic acid”. Besides, in data set [3], the “reduction in mean flush intensity” value is 53% and the “reduction in median flush intensity” value came to 77%. In data set [4] (60 mg ASA), the “episodes of flushing per subject, mean” value is reported as 1.4; the “total number of flushing episodes” value came out at 64 episodes; the “maximum severity of flushing, mean” value is 36.1 mm; the “maximum severity of flushing, median” value was found to be 35.0 mm. In data set [4] (60 mg ASA), the “total cumulative duration of flushing, mean” value came out at 101.8 min and the “total cumulative duration of flushing, median” value amounted to 84.0 min. Further, the “subjects who experienced a flushing response” value in data set [4] (60 mg ASA (Treatment B)) worked out at 87%. In addition, the “incidence of itching, crawling, reddening and fever-like sensation of the skin” value in data set [4] (60 mg ASA compared to placebo) is “occurred less frequently”. Further, in data set [4] (60 mg ASA compared to placebo (p>0.10)), the “times more likely to have fewer episodes of flushing” value (shortened to “times more likely”) is reported as 1.3 times. In data set [4] (240 mg ASA), the “episodes of flushing per subject, mean” value worked out at 1.1; the “total number of flushing episodes” value was determined as 52 episodes; the “maximum severity of flushing, mean” value was 25.8 mm; the “maximum severity of flushing, median” value was found to be 20.0 mm. Besides, in data set [4] (240 mg ASA), the “total cumulative duration of flushing, mean” value amounted to 67.1 min and the “total cumulative duration of flushing, median” value was 44.5 min. Moreover, the “subjects who experienced a flushing response” value in data set [4] (240 mg ASA (Treatment A)) amounted to 74%. Besides, the “incidence of individual flushing symptoms” value in data set [4] (240 mg ASA compared to 60 mg ASA or placebo) was “lower incidence of each flushing symptom”. The “times more likely” value in data set [4] (240 mg ASA compared to 60 mg ASA, multinomial logistic regression (p=0.05)) was determined as 1.7 times. Further, the “times more likely” value in data set [4] (240 mg ASA compared to placebo, multinomial logistic regression (p=0.01)) is 2.1 times. Also, in data set [5] (160 mg), the “aspirin plasma AUC” value is recorded as ~800 ngml^−1h and the “salicylic acid plasma AUC” value is ~11000 ngml^−1h. For the same molecule, in data set [5] (240 mg), the “aspirin plasma AUC” value is listed as ~1200 ngml^−1h and the “salicylic acid plasma AUC” value is reported as ~16300 ngml^−1h. For the same molecule, in data set [5] (324 mg), the “aspirin plasma AUC” value was ~1600 ngml^−1h and the “salicylic acid plasma AUC” value is ~22000 ngml^−1h. Besides, the “flushing induced by nicotinic acid” value in data set [6] is recorded as “reduce the flushing induced by nicotinic acid”.

As to `O=C(O)c1cccnc1` [Niacin, nicotinic acid], the “reduces Lp(a) levels” value in data set [7] is “about 40%”.

For the molecule `O=C(O)c1ccccc1O` [salicylic acid], the Cmax in data set [5] (160 mg, fast release rate) is ~2600 ng/mL; in data set [5] (160 mg, intermediate release rate), ~1700 ng/mL; in data set [5] (160 mg, slow release rate), ~1200 ng/mL; in data set [5] (240 mg, fast release rate), ~3700 ng/mL; in data set [5] (240 mg, intermediate release rate), ~2600 ng/mL; in data set [5] (240 mg, slow release rate), ~1800 ng/mL. The Cmax in data set [5] (324 mg, fast release rate) was ~5000 ng/mL; in data set [5] (324 mg, intermediate release rate) it was ~3500 ng/mL; in data set [5] (324 mg, slow release rate) it was ~2400 ng/mL.
